Molecular target: T1, C1s (Homo sapiens, UniProt P09871)
T1 construct: purchased Enzyme Research, South Bend, Ind
T1 sequence (P09871 438-688 limits assumed): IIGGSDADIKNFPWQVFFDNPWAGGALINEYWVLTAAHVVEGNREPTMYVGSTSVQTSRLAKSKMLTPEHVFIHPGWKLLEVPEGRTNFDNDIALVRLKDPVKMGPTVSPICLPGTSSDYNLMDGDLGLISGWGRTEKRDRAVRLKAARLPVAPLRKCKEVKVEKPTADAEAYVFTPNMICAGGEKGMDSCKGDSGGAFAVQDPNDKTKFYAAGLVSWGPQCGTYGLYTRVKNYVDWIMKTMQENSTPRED
T1 sequence (P09871 16-437 partner limits assumed): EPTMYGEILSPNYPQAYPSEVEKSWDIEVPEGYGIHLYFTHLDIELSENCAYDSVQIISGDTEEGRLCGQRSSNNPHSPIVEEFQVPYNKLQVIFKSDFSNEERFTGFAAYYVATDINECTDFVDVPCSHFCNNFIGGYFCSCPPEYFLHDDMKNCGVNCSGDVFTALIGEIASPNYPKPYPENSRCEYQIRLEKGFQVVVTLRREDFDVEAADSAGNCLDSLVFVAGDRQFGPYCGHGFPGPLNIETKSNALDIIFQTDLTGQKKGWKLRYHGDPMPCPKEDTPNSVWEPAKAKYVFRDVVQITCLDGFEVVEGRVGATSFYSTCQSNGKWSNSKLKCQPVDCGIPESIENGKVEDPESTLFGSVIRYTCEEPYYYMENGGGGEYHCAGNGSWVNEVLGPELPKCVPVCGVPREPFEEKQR
Assay: In vitro Inhibition of C1s (Ki determination, Z-Gly-Arg-5-Bzl/DTNB hydrolysis)
Assay type: biochemical
Settings: purified activated C1s 7.3 nM, substrate Z-Gly-Arg-5-Bzl 45 μM, DTNB 200 μM, pH 7.5, 37° C.
Protocol: Reagents: All buffer salts were obtained from Sigma Chemical Company (St. Louis, Mo.), and were of the highest purity available.
Ki Determinations: All assays are based on the ability of the test compound to inhibit the Cis catalyzed hydrolysis of the substrate Z-Gly-Arg-5-Bzl via an intermediate reaction with 5,5′-dithio-bis(2-nitrobenzoic acid) (DTNB). [Complement C1s is available commercially from Enzyme Research, South Bend, Ind.] In a typical Ki determination, substrate is prepared in DMSO, and diluted into an assay buffer consisting of 50 mM HEPES, 200 mM NaCl, pH 7.5. […] In general, substrate concentrations are lower than the experimentally determined value for Km. […]
In a typical Ki determination, into each well of a 96-well plate is pipetted 280 μL of substrate solution, 10 μL of test compound solution, and the plate allowed to thermally equilibrate at 37° C. for 15 minutes. Reactions were initiated by the addition of a 10 μL aliquot of the enzyme and the absorbance increase at 405 nm is recorded for 5 minutes in a Molecular Devices plate reader. […] The ratio of the velocity (rate of change in absorbance as a function of time) for a sample containing no test compound is divided by the velocity of a sample containing test compound, and is plotted as a function of test compound concentration. The data are fit to a linear regression, and the value of the slope of the line calculated. […]

Ki: 30 nM
Substance: 4-[4-(3-{[(2,4-Difluorophenyl)sulfonyl]amino}phenyl)(1,3-thiazol-2-yl)]-5-methylthiophene-2-carboxamidine [Example 290]
